Source: patent publication US9907797B2, “Combination therapies for overcoming resistance to mitotic agents during chemotherapy” (EMORY UNIVERSITY, priority 2014, dated 2018)

Experiments:
[1] = tested on: A549 cells; assay: Cell cycle analysis by flow-cytometry, antephase checkpoint; format: cell-based; details: unsynchronized A549 cells, 12 hours, docetaxel 50 nM with A3 10 uM
From the text: Cell cycle arrest at G2/M in response to microtubular damage is a hallmark of a functional antephase checkpoint.

[2] = tested on: CHFR expressing cell lines; assay: Colony formation assays on a panel of cell lines of different cancer types; format: cell-based
Experimental: Various cell lines of different tissues of origin and with different CHFR expression status were exposed to 1 hour of docetaxel and 72 hours of ‘A3’. Effects were defined as 1−colony count (treatment)/colony count (control). The nature of the interaction between the two compounds was analyzed by the Bliss additivity method. […] For subsequent colony formation assays, cell lines were characterized into CHFR expressing vs. CHFR deficient cell lines by Western-Blot.
Finally, colony formation assays were performed on a panel of cell lines of different cancer types such as lung-, breast-, and colon cancer.

[3] = tested on: H460 cell line; assay: Tumor growth in H460 mouse xenografts; format: in vivo, nude mice
Experimental: Pharmacokinetics of A3 were performed at various time points after iv and oral administration of a single dose of ‘A3’ at 10 mg/kg. 2.5×10^5 H460 cells were transplanted into the flank of nude mice were. 5 days after transplant, I.P. injection of DMSO, A3, docetaxel, or combination commenced. Explanted tumors are smallest in mice that were treated with combination therapy.
The in-vivo effects of ‘A3’, docetaxel and the combination on tumor growth in mouse xenografts, who were previously injected with the H460 cell line were evaluated.

[4] = Toxicity in treated xenograft mice; format: in vivo; details: combination treatment with A3 and docetaxel, 10 days after treatment
[5] = biological target: T1, CHFR (Homo sapiens, UniProt Q96EP1); assay: CHFR levels by western blotting of whole cell extracts; format: cell-based; parameters: endogenous in cells; host or cells: A549; details: 10 uM, 24 hours, A549 cells
T1 sequence (Q96EP1 1-664): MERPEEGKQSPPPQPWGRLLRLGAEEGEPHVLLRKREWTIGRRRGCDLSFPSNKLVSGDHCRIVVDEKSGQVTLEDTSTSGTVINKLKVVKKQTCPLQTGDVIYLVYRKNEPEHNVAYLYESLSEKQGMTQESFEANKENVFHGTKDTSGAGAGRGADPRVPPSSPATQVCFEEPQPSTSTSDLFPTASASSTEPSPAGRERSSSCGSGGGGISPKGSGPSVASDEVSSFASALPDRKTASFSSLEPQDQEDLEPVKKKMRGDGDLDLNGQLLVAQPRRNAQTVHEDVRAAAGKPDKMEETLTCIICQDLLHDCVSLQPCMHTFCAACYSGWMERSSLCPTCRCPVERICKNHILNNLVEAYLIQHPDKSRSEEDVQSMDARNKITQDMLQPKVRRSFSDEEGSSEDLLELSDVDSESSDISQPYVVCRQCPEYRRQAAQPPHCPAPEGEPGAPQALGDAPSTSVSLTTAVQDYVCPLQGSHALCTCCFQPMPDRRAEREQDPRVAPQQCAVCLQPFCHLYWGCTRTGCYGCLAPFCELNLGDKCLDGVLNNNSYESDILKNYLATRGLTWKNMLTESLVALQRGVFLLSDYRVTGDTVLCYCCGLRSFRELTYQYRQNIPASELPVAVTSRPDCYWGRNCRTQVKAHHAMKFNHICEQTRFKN
Experimental: The 10 compounds with the highest docking scores were tested for their ability to regulate CHFR expression levels.
In an attempt to generate possible lead compounds for the pharmacologic inhibition of the CHFR-PARP1 interaction, a high throughput computational screen of 5,256,508 chemical structures in the MCULE database of purchasable compounds using the AutoDockVina algorithm against the published crystal structure of the CHFR-PBZ domain was performed. The 10 most promising ‘hits’ based on Autodock Vina docking scores (<−9.7) were selected for further characterization. Commercially available compounds were tested for their impact on nuclear CHFR levels (FIG. 3A). Several compounds, including ‘A2’, ‘A3’, ‘A4’ and ‘A6’ decreased CHFR levels assayed by western blotting of whole cell extracts. The impact of the above referenced compounds on the PARP1/CHFR interaction were evaluated. HEK293 cells were transfected with GST tagged PARP1 and the interaction with CHFR determined in pull down assays for those 4 compounds. […] In contrast to treatment with ABT-888, ‘A3’ completely disrupted the interaction between GST-tagged PARP-1 and CHFR (FIG. 3B). […]

[6] = biological target: T1, CHFR; assay: Nuclear localization of CHFR (staining) in A549 cells with MG-132; format: cell-based; parameters: endogenous in cells; host or cells: A549; details: A3 in combination with MG-132, A549 cells
Experimental: HEK293 cells were stably transfected with the pDEST27-AR-CHFR construct. Deletion of the RING domain in this construct leads to both stable CHFR and PARP1 expression that is unaltered by treatment with increasing concentrations of ‘A3’ for 16 hours. Nonetheless, the interaction between glutathione-affinity purified CHFR-ΔR and PARP1 was decreased by ‘A3’ in a dose dependent fashion. A549 cells were incubated for 16.5 hrs with MG132 and indicated A3 concentration for 16 hrs. At 10 uM A3 concentration CHFR staining is diminished in the nucleus Cells are stained with CHFR.
In an attempt to generate possible lead compounds for the pharmacologic inhibition of the CHFR-PARP1 interaction, a high throughput computational screen of 5,256,508 chemical structures in the MCULE database of purchasable compounds using the AutoDockVina algorithm against the published crystal structure of the CHFR-PBZ domain was performed. The 10 most promising ‘hits’ based on Autodock Vina docking scores (<−9.7) were selected for further characterization. Commercially available compounds were tested for their impact on nuclear CHFR levels (FIG. 3A). […] The impact of the above referenced compounds on the PARP1/CHFR interaction were evaluated. HEK293 cells were transfected with GST tagged PARP1 and the interaction with CHFR determined in pull down assays for those 4 compounds. […]

## Cc1ccc(N2C(=O)NC(=O)C(=Cc3cn(Cc4ccccc4)c4ccccc34)C2=O)cc1C [A3, 5-((1-benzyl-1H-indol-3-yl)methylene)-1-(3,4-dimethylphenyl)pyrimidine-2,4,6(1H,3H,5H)-trione]
[1]
  docetaxel induced cell cycle arrest: prevented docetaxel induced cell cycle arrest
[2]; CHFR expressing cell line H460
  synergy between A3 and docetaxel, colony formation (Bliss additivity): strong synergy
[2]; CHFR expressing cell lines other than EKVX, 1 hour docetaxel, 72 hours A3
  synergy between A3 and docetaxel, colony formation (Bliss additivity): synergy between ‘A3’ and docetaxel was observed for all other CHFR expressing cell lines
[3]; A3 alone compared to DMSO alone, I.P.
  tumor growth: did not have a discernable effect on tumor growth
[3]; A3 given 4 hours prior to docetaxel, compared to docetaxel alone
  tumor size: significantly decreased tumor size
[4]
  hematologic, hepatic and renal toxicity: not associated with a significant increase in hematologic, hepatic and renal toxicity
[5]
  CHFR expression: reduced CHFR expression
[6]
  nuclear localization of CHFR: depletion of nuclear CHFR and accumulation of cytoplasmic CHFR
